According to patent US8912222B2, “Method to control insects resistant to common insecticides” (priority 2006, dated 2014):
Read-outs that look alike come from different tables or passages of the source. Marks after values point to notes of the source that are not given here.

Experiments:
[1] = system: insecticide-resistant Myzus persicae strain 4013A; test: Leaf-disc dip bioassay on adult aphids, insecticide-resistant strain (Example IX); settings: for Resistance Ratio: 4013A (R) vs US1L (S) LC50
Description: (§1) Activity was compared to that of commercial insecticides representing major insecticide classes.
(§2) The common name associated with Myzus persicae is the green peach aphid. […] The “US1L” strain of M. persicae was the reference strain used in these tests.
(§3) Subsequent dilutions used a 10% solution of acetone in distilled water (containing 0.01% Agral®) as the diluent.
(§4) For M. persicae bioassays, discs cut from fully expanded leaves of Chinese cabbage (Brassica rapa ssp. Pekinensis cv. Won Bok) plants were dipped into serial dilutions of insecticide, allowed to air-dry, and placed onto agar-water (1%) beds in plastic Petri-dishes. Leaf discs immersed in the diluent only were used for controls. Adults were removed from rearing boxes and, using a fine camel-hair paint brush, 10 healthy, apterous females were placed onto each treated leaf disc and each unit sealed with a close-fitting, ventilated lid. All bioassays consisted of three replicates per dose (including controls). Mortality was scored at 24, 48 and 72 h following initial exposure for all compounds and the 72 h data were used for all analyses.
(§5) Mortality data were subjected to probit analysis to derive LC50 and LC90 estimates. Resistance ratios were calculated using the following equation: […]

[2] = system: Myzus persicae US1L strain (susceptible)
Description: as §1, §2, §3, §4, §5

[3] = system: insecticide-resistant B-biotype Bemisia tabaci strain GUA-MIX; test: Leaf-disc dip bioassay on adult whiteflies, neonicotinoid-resistant B-biotype strain (Example VIII); format: in vivo; settings: for Resistance Ratio: GUA-MIX (R) vs SUD-S (S) LC50
Experimental: (§6) The insecticidal activity of Compound 7 on adults from an insecticide-resistant, B-biotype Bemisia tabaci strain was assessed. The activity of commercial, neonicotinoid insecticides was also assessed and served as the basis for comparisons of relative efficacy on this insecticide-resistant whitefly strain.
(§7) The common name associated with the B-biotype of B. tabaci is the silverleaf whitefly. The strain used in these tests, “GUA-MIX”, was collected from a variety of crops situated in the Zacapa Valley of Guatemala in January of 2004. […] The SUD-S strain of B. tabaci was the reference strain used in these tests and is a laboratory strain that is fully susceptible to all insecticide groups.
(§8) A technical sample of Compound 7 was initially dissolved in 90% acetone in distilled water (containing 0.01% Agral) to obtain a 5000 ppm stock solution. […] Commercial formulations of imidacloprid (Confidor, 200SL), thiamethoxam (Actara, 25WG) and acetamiprid (Mospilan, 20SP) were diluted using distilled water containing 0.01% Agral.
(§9) Adult B. tabaci were removed from rearing cages using a motorized aspirator and, after brief narcosis, 20-30 healthy female whiteflies were placed onto each treated leaf disc. Each unit was sealed with a close-fitting, ventilated lid. Once adults had recovered from narcosis, dishes were inverted so that the leaf disc was facing abaxial side down allowing the adult whiteflies to orient normally. All bioassays consisted of three replicates per concentration (including controls). Mortality was assessed at 48 hours after initiation of the test for the commercial standards and at 72 hours for Compound 7.
(§10) Compound 7 and the commercial neonicotinoid insecticides imidacloprid, thiamethoxam and acetamiprid were tested in discriminating concentration bioassays against both whitefly strains. More extensive concentration-response bioassays against both whitefly strains were conducted for Compound 7 and imidacloprid. […] Resistance ratios were calculated using the following equation: […]

[4] = system: field-collected populations of the whitefly, Bemisia tabaci; settings: field-collected B. tabaci strains, late 1990s onward; literature; cited from earlier work
[5] = system: Bemisia tabaci SUD-S strain (susceptible laboratory strain); test: Leaf-disc dip bioassay on adult whiteflies, susceptible reference strain (Example VII); format: in vivo; settings: for mortality at 40 ppm / mortality at 100 ppm / mortality at 500 ppm: 72 h
Experimental: (§11) The activity of commercial, neonicotinoid insecticides was also assessed and served as the basis for comparisons of relative efficacy on this insecticide-resistant whitefly strain.
(§12) The common name associated with the Q-biotype of B. tabaci is the sweetpotato whitefly. […] The SUD-S strain of B. tabaci was the reference strain used in these tests and is a laboratory strain that is fully susceptible to all insecticide groups.
as §8, with “Technical samples” for “A technical sample”, “Compounds 6 and” for “Compound”, “were” for “was”, “obtain” for “obtain a”, “solutions.” for “solution.”
as §9, with “Compounds 6 and” for “Compound”
as §10, with “Compounds 6,” for “Compound”

[6] = system: insecticide-resistant Q-biotype Bemisia tabaci strain CHLORAKA; test: Leaf-disc dip bioassay on adult whiteflies, neonicotinoid-resistant Q-biotype strain (Example VII); format: in vivo; settings: for Resistance Ratio: CHLORAKA (R) vs SUD-S (S) LC50; for mortality at 40 ppm / mortality at 100 ppm / mortality at 500 ppm: 72 h
Experimental: as §11, §12
as §8, with “Technical samples” for “A technical sample”, “Compounds 6 and” for “Compound”, “were” for “was”, “obtain” for “obtain a”, “solutions.” for “solution.”
as §9, with “Compounds 6 and” for “Compound”
as §10, with “Compounds 6,” for “Compound”

[7] = system: Bemisia tabaci SUD-S strain (susceptible laboratory strain); test: Leaf-disc dip bioassay on adult whiteflies, susceptible reference strain (Example VIII); format: in vivo
Experimental: as §6, §7, §8, §9, §10

[8] = system: Bemisia tabaci SUD-S strain (susceptible laboratory strain); test: Leaf-disc dip bioassay on adult whiteflies, susceptible reference strain (Example IX); format: in vivo
Description: as §12
as §9, with “Compounds 2, 4, and 5.” for “Compound 7.”
(§13) Resistance ratios were calculated using the following equation: […]

[9] = system: insecticide-resistant Q-biotype Bemisia tabaci strain CHLORAKA; test: Leaf-disc dip bioassay on adult whiteflies, insecticide-resistant Q-biotype strain (Example IX); format: in vivo; settings: for Resistance Ratio: CHLORAKA (R) vs SUD-S (S) LC50
Description: as §12
as §9, with “Compounds 2, 4, and 5.” for “Compound 7.”
as §13

[10] = probit analysis, 72 h mortality data
[11] = Bemisia tabaci, 48 h, read-out: Mortality, R Strain (GUA-MIX)
[12] = Bemisia tabaci, 48 h, read-out: Mortality, S Strain (SUD-S)
[13] = Bemisia tabaci, 48 h, read-out: Mortality, R Strain (CHLORAKA)
[14] = probit analysis, mortality at 72 hours for Compound 7, 48 hours for commercial standard
[15] = probit analysis, mortality at 72 hours for Compounds 6 and 7, 48 hours for commercial standard
[16] = probit analysis, mortality at 72 hours for Compounds 2, 4, 5, 48 hours for commercial standards
[17] = Bemisia tabaci, read-out: Mortality, S Strain (SUD-S)
[18] = Bemisia tabaci, read-out: Mortality, R Strain (CHLORAKA)
[19] = Bemisia tabaci, 72 h, read-out: Mortality, R Strain (GUA-MIX)
[20] = Bemisia tabaci, 72 h, read-out: Mortality, S Strain (SUD-S)

## Cc1nc(N(C)C)nc(OC(=O)N(C)C)c1C [Pirimicarb, pirimicarb]
[1]
  Resistance Ratio: >60**^
[1]; [10]
  LC50, R strain (4013A): >1000 ppm
[2]; [10]
  LC50, S strain (US1L): 14.8 ppm

## CN1COCN(Cc2cnc(Cl)s2)/C1=N\[N+](=O)[O-] [Thiamethoxam, thiamethoxam]
[3]; [11]
  mortality at 25 ppm: 10%
  mortality at 250 ppm: 51%
  mortality at 2500 ppm: 87%
[4]
  resistance of more recently-collected whitefly strains: comparable levels of resistance
[5]; [12]
  mortality at 32 ppm: 85%
  mortality at 512 ppm: 94%
[6]; [13]
  mortality at 32 ppm: 0%
  mortality at 512 ppm: 15%
[7]; [12]
  mortality at 32 ppm: 57%
  mortality at 128 ppm: 73%

## O=[N+]([O-])NC1=NCCN1Cc1ccc(Cl)nc1 [Imidacloprid, imidacloprid]
[3]; [11]
  mortality at 32 ppm: 8%
  mortality at 128 ppm: 39%
  mortality at 2048 ppm: 49%
[3]
  Resistance Ratio: >45.5**
[3]; imidacloprid concentrations of 1000 ppm
  effect on the majority of adults of the GUA-MIX strain: largely unaffected
[3]; [14]
  LC50, R strain (GUA-MIX): >500.0 ppm
[4]
  resistance of more recently-collected whitefly strains: more than 100 fold
[5]; [12]
  mortality at 32 ppm: 83%
  mortality at 128 ppm: 95%
[5]; [15]
  LC50, S strain (SUD-S): 4.3 ppm
[8]; [16]
  LC50, S strain (SUD-S): 1.2 ppm
[1]
  Resistance Ratio: 17
[1]; [10]
  LC50, R strain (4013A): 15.3 ppm
[2]; [10]
  LC50, S strain (US1L): 0.9 ppm
[6]; [13]
  mortality at 32 ppm: 2%
  mortality at 128 ppm: 2%
  mortality at 4096 ppm: 25%
[6]
  Resistance Ratio: >930**
[6]; imidacloprid at 1000 ppm
  effect of exposure on adults of the CHLORAKA strain: largely unaffected
[6]; [15]
  LC50, R strain (CHLORAKA): >4000 ppm
[9]
  Resistance Ratio: >800**
[9]; imidacloprid at 1000 ppm
  effect of exposure on adults of the CHLORAKA strain: largely unaffected
[9]; [16]
  LC50, R strain (CHLORAKA): >1000 ppm
[7]; [12]
  mortality at 32 ppm: 74%
  mortality at 128 ppm: 87%
[7]; [14]
  LC50, S strain (SUD-S): 11.2 ppm

## CC(c1ccc(C(F)(F)F)nc1)S(C)(=O)=NC#N (stereo not shown) [Compound 2, [1-(6-Trifluoromethylpyridin-3-yl)ethyl](methyl)-oxido-λ^4-sulfanylidenecyanamide]
[8]; [16]
  LC50, S strain (SUD-S): 1.8 ppm
[1]
  Resistance Ratio: 0.4
[1]; [10]
  LC50, R strain (4013A): 1.52 ppm
[2]; [10]
  LC50, S strain (US1L): 4.13 ppm
[9]
  Resistance Ratio: 2.8
[9]; [16]
  LC50, R strain (CHLORAKA): 5.0 ppm

## CS(=O)(Cc1ccc(Cl)nc1)=NC#N (stereo not shown) [Compound 4, [(6-Chloropyridin-3-yl)methyl](methyl)oxido-λ^4-sulfanylidenecyanamide]
[8]; in vivo
  LC50, S strain (SUD-S): 3.1 ppm
[1]
  Resistance Ratio: 0.7
[1]; [10]
  LC50, R strain (4013A): 103 ppm
[2]; in vivo
  LC50, S strain (US1L): 146 ppm
[9]
  Resistance Ratio: 5.2
[9]; in vivo
  LC50, R strain (CHLORAKA): 16.5 ppm

## C[C@H](c1ccc(Cl)nc1)S(C)(=O)=NC#N (single isomer, unassigned) [Compound 6]
[5]; [17]
  mortality at 40 ppm: 99%
  mortality at 100 ppm: 100%
  mortality at 500 ppm: 100%
[5]; in vivo
  LC50, S strain (SUD-S): 7.4 ppm
[6]; [18]
  mortality at 40 ppm: 39%
  mortality at 100 ppm: 79%
  mortality at 500 ppm: 96%
[6]
  Resistance Ratio: 6.1
[6]; in vivo
  LC50, R strain (CHLORAKA): 45 ppm

## CC1(C)[C@H](C(=O)O[C@H](C#N)c2cccc(Oc3ccccc3)c2)[C@@H]1C=C(Br)Br [Deltamethrin, deltamethrin]
[8]; [16]
  LC50, S strain (SUD-S): 0.4 ppm
[1]
  Resistance Ratio: 60
[1]; in vivo
  LC50, R strain (4013A): 92 ppm
[2]; [10]
  LC50, S strain (US1L): 1.5 ppm
[9]
  Resistance Ratio: 815 ^
[9]; [16]
  LC50, R strain (CHLORAKA): 325 ppm

## CC(c1ccc(Cl)nc1)S(C)(=O)=NC#N (stereo not shown) [Compound 5, [1-(6-Chloropyridin-3-yl)ethyl](methyl)oxido-λ^4-sulfanylidenecyanamide]
[8]; in vivo
  LC50, S strain (SUD-S): 4.5 ppm
[1]
  Resistance Ratio: 0.2
[1]; [10]
  LC50, R strain (4013A): 12.5 ppm
[2]; in vivo
  LC50, S strain (US1L): 62.3 ppm
[9]
  Resistance Ratio: 2.9
[9]; in vivo
  LC50, R strain (CHLORAKA): 13.2 ppm

## C/C(=N\C#N)N(C)Cc1ccc(Cl)nc1 [Acetamiprid, acetamiprid]
[3]; [11]
  mortality at 32 ppm: 1%
  mortality at 512 ppm: 63%
[4]
  resistance of more recently-collected whitefly strains: comparable levels of resistance
[5]; [12]
  mortality at 32 ppm: 52%
  mortality at 512 ppm: 79%
[6]; [13]
  mortality at 32 ppm: 2%
  mortality at 512 ppm: 30%
[7]; [12]
  mortality at 32 ppm: 65%
  mortality at 512 ppm: 98%

## CCCSP(=O)(OCC)Oc1ccc(Br)cc1Cl (stereo not shown) [Profenofos, profenofos]
[8]; [16]
  LC50, S strain (SUD-S): 2.0 ppm
[9]
  Resistance Ratio: 189 ^
[9]; [16]
  LC50, R strain (CHLORAKA): 374 ppm

## C[C@@H](c1ccc(Cl)nc1)S(C)(=O)=NC#N (single isomer, unassigned) [Compound 7]
[3]; [19]
  mortality at 40 ppm: 70%
  mortality at 100 ppm: 79%
[3]
  Resistance Ratio: 3.3
[3]; in vivo
  LC50, R strain (GUA-MIX): 30.3 ppm
[5]; [17]
  mortality at 40 ppm: 98%
  mortality at 100 ppm: 97%
  mortality at 500 ppm: 100%
[5]; in vivo
  LC50, S strain (SUD-S): 9.0 ppm
[6]; [18]
  mortality at 40 ppm: 37%
  mortality at 100 ppm: 79%
  mortality at 500 ppm: 97%
[6]
  Resistance Ratio: 5.9
[6]; in vivo
  LC50, R strain (CHLORAKA): 53 ppm
[7]; [20]
  mortality at 40 ppm: 84%
  mortality at 100 ppm: 95%
[7]; in vivo
  LC50, S strain (SUD-S): 9.3 ppm
